From BindingDB's records for doi:10.1016/s0960-894x(00)00402-9 (Pharmacia, 2000)

These compounds were tested against DNA polymerase catalytic subunit (Human cytomegalovirus) (UniProt P08546) (assay: Inhibitory activity against Human Cytomegalovirus (HCMV) polymerase).
Sequence of DNA polymerase catalytic subunit (Human cytomegalovirus) (P08546 whole entry, looked up): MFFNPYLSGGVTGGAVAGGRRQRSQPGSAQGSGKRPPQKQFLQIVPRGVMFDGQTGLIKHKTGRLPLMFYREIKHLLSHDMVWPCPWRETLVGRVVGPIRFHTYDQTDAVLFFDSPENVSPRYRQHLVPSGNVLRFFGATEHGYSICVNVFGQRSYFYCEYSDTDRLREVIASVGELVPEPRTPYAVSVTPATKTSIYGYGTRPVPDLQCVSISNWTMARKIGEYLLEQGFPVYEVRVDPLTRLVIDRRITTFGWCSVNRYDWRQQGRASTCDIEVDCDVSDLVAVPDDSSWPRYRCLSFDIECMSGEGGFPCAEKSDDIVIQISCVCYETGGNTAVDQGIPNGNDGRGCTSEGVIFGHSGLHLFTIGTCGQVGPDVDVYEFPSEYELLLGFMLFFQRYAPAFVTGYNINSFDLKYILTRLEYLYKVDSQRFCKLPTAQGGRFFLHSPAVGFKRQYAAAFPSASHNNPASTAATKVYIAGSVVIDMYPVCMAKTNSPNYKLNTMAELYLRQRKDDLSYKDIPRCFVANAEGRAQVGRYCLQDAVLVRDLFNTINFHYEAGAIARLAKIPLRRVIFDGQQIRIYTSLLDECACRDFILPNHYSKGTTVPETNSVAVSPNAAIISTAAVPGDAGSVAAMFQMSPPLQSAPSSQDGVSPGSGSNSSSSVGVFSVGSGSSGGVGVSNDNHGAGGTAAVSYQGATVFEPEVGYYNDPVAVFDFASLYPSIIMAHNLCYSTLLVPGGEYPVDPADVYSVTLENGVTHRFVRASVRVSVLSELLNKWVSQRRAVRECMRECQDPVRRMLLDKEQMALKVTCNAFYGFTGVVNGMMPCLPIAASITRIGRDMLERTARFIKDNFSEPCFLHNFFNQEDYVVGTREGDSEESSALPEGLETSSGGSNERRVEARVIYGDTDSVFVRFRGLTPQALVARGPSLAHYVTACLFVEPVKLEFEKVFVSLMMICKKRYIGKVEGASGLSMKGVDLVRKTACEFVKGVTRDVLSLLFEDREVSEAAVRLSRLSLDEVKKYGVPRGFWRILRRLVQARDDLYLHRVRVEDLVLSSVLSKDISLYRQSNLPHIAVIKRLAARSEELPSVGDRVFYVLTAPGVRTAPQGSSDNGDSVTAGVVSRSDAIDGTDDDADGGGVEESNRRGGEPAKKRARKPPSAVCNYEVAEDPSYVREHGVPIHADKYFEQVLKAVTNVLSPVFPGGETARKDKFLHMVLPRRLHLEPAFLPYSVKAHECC
With COc1ccc(NC(=O)c2cc3ccccc3cc2O)cc1 the IC50 was 56 µM.
With O=C(Nc1cccc([N+](=O)[O-])c1)c1cc2ccccc2cc1O the IC50 was 12 µM.
O=C(NCc1ccc(Cl)cc1)c1ccc2ccccc2c1O [1-Hydroxy-naphthalene-2-carboxylic acid 4-chloro-benzylamide] was tested, and the IC50 was 13 µM.
O=C(NCc1ccc([N+](=O)[O-])cc1)c1ccc2ccccc2c1O [1-Hydroxy-naphthalene-2-carboxylic acid 4-nitro-benzylamide] showed an IC50 of 14.5 µM.
O=C(Nc1ccc(Cl)cc1)c1ccc2ccccc2c1O [1-Hydroxy-naphthalene-2-carboxylic acid (4-chloro-phenyl)-amide] was tested, and the IC50 was 37 µM.
O=C(NCc1ccc(Cl)cc1)c1cc2cccc(O)c2cc1O [3,5-Dihydroxy-naphthalene-2-carboxylic acid 4-chloro-benzylamide] gave an IC50 of 3.3 µM.
For O=C(NCc1ccc([N+](=O)[O-])cc1)c1cc2cccc(O)c2cc1O [3,5-Dihydroxy-naphthalene-2-carboxylic acid 4-nitro-benzylamide], the IC50 was 3.8 µM.
In the case of O=C(NCc1ccc(Cl)cc1)c1cc2cc(O)ccc2cc1O [3,7-Dihydroxy-naphthalene-2-carboxylic acid 4-chloro-benzylamide], the IC50 is reported as 2.4 µM.
O=C(NCc1ccc([N+](=O)[O-])cc1)c1cc2cc(O)ccc2cc1O [3,7-Dihydroxy-naphthalene-2-carboxylic acid 4-nitro-benzylamide] was tested, and the IC50 was 10.6 µM.
COc1ccc2cc(O)c(C(=O)NCc3ccc(Cl)cc3)cc2c1 [3-Hydroxy-7-methoxy-naphthalene-2-carboxylic acid 4-chloro-benzylamide] showed an IC50 of 0.76 µM.
With COc1ccc2cc(O)c(C(=O)NCc3ccc([N+](=O)[O-])cc3)cc2c1 [3-Hydroxy-7-methoxy-naphthalene-2-carboxylic acid 4-nitro-benzylamide] the IC50 was 0.82 µM.
COc1ccc2cc(O)c(C(=O)Nc3nc4c(Cl)cccc4s3)cc2c1 [3-Hydroxy-7-methoxy-naphthalene-2-carboxylic acid (4-chloro-benzothiazol-2-yl)-amide] gave an IC50 of 6.4 µM.
Work on COc1ccc2cc(O)c(C(=O)Nc3ncc(Cl)s3)cc2c1 [3-Hydroxy-7-methoxy-naphthalene-2-carboxylic acid (5-chloro-thiazol-2-yl)-amide] yielded an IC50 of 59 µM.
COc1ccc2cc(O)c(C(=O)Nc3nc(-c4cccc([N+](=O)[O-])c4)cs3)cc2c1 [3-Hydroxy-7-methoxy-naphthalene-2-carboxylic acid [4-(3-nitro-phenyl)-thiazol-2-yl]-amide] was tested, and the IC50 was 2.4 µM.
COc1ccc2cc(O)c(C(=O)Nc3nc(-c4ccc(Cl)cc4)cs3)cc2c1 [3-Hydroxy-7-methoxy-naphthalene-2-carboxylic acid [4-(4-chloro-phenyl)-thiazol-2-yl]-amide] was tested, and the IC50 was 6 µM.
In the case of COc1ccc2cc(O)c(C(=O)Nc3nnc(Cc4ccc(Cl)cc4)s3)cc2c1 [3-Hydroxy-7-methoxy-naphthalene-2-carboxylic acid [5-(4-chloro-benzyl)-[1,3,4]thiadiazol-2-yl]-amide], the IC50 is reported as 4 µM.
Work on O=C(NCc1ccc(Cl)cc1)c1cc2ccccc2cc1O [3-Hydroxy-naphthalene-2-carboxylic acid 4-chloro-benzylamide] yielded an IC50 of 52 µM.
With O=C(NCc1ccc([N+](=O)[O-])cc1)c1cc2ccccc2cc1O [3-Hydroxy-naphthalene-2-carboxylic acid 4-nitro-benzylamide] the IC50 was 12 µM.
Compound Nc1cccc(NC(=O)c2cc3ccccc3cc2O)c1 [3-Hydroxy-naphthalene-2-carboxylic acid (3-amino-phenyl)-amide] has an IC50 of over 100 µM.
O=C(Nc1ccc(Br)cc1)c1cc2ccccc2cc1O [3-Hydroxy-naphthalene-2-carboxylic acid (4-bromo-phenyl)-amide] was tested, and the IC50 was 22 µM.
In the case of O=C(Nc1ccc(Cl)cc1)c1cc2ccccc2cc1O [3-Hydroxy-naphthalene-2-carboxylic acid (4-chloro-phenyl)-amide], the IC50 is reported as 69 µM.
N#Cc1ccc(NC(=O)c2cc3ccccc3cc2O)cc1 [3-Hydroxy-naphthalene-2-carboxylic acid (4-cyano-phenyl)-amide] showed an IC50 of 19 µM.
Work on O=C(Nc1ccc([N+](=O)[O-])cc1)c1cc2ccccc2cc1O [3-Hydroxy-naphthalene-2-carboxylic acid (4-nitro-phenyl)-amide] yielded an IC50 of 22 µM.
With O=C(NCCc1ccc(Cl)cc1)c1cc2ccccc2cc1O [3-Hydroxy-naphthalene-2-carboxylic acid [2-(4-chloro-phenyl)-ethyl]-amide] the IC50 was over 100 µM.
With O=C(NCCc1ccc([N+](=O)[O-])cc1)c1cc2ccccc2cc1O [3-Hydroxy-naphthalene-2-carboxylic acid [2-(4-nitro-phenyl)-ethyl]-amide] the IC50 was over 100 µM.
Work on O=C(Nc1ccccc1)c1cc2ccccc2cc1O [3-Hydroxy-naphthalene-2-carboxylic acid phenylamide] yielded an IC50 of over 100 µM.
Work on O=C(Nc1ccccn1)c1cc2ccccc2cc1O [3-Hydroxy-naphthalene-2-carboxylic acid pyridin-2-ylamide] yielded an IC50 of over 100 µM.
O=C(Nc1cccnc1)c1cc2ccccc2cc1O [3-Hydroxy-naphthalene-2-carboxylic acid pyridin-3-ylamide] was tested, and the IC50 was over 100 µM.
With COc1cc2ccccc2cc1C(=O)NCc1ccc(Cl)cc1 [3-Methoxy-naphthalene-2-carboxylic acid 4-chloro-benzylamide] the IC50 was 8 µM.
In the case of COc1cc2ccccc2cc1C(=O)Nc1ccc([N+](=O)[O-])cc1 [3-Methoxy-naphthalene-2-carboxylic acid (4-nitro-phenyl)-amide], the IC50 is reported as over 100 µM.
Compound COCOc1cc2ccccc2cc1C(=O)Nc1ccc([N+](=O)[O-])cc1 [3-Methoxymethoxy-naphthalene-2-carboxylic acid (4-nitro-phenyl)-amide] has an IC50 of over 100 µM.
Compound COc1ccc2cc(O)c(CNCc3ccc(Cl)cc3)cc2c1 [3-[(4-Chloro-benzylamino)-methyl]-6-methoxy-naphthalen-2-ol] has an IC50 of over 100 µM.
For O=C(NCc1ccc([N+](=O)[O-])cc1)c1cc2cc(Br)ccc2c(Br)c1O [4,7-Dibromo-3-hydroxy-naphthalene-2-carboxylic acid 4-nitro-benzylamide], the IC50 was 2.9 µM.
With O=C(NCc1ccc(Cl)cc1)c1ccc2ccccc2c1 [Naphthalene-2-carboxylic acid 4-chloro-benzylamide] the IC50 was over 100 µM.
O=C(Nc1ccc([N+](=O)[O-])cc1)c1ccc2ccccc2c1 [Naphthalene-2-carboxylic acid (4-nitro-phenyl)-amide] showed an IC50 of over 100 µM.
